Columns and labels:
[1] = test system: E. coli TOP10; test: growth inhibition screen by expression of the peptide in host bacteria (pBAD/gIIIA, L-arabinose induction, OD600); format: cell-based; conditions: E. coli TOP10, OD600 before and 4 hours after L-arabinose induction
[2] = test system: E. coli DH5α; test: microbroth dilution method, peptide and antibiotic combination; format: cell-based
Protocol: To determine whether or not antimicrobial peptides as described herein act in a synergistic manner with antibiotic compounds, a microbroth dilution method was performed against E. coli DH5α performed according to the guidelines of the National Committee for Clinical Laboratory Standards.

[3] = antibiotic alone (—), E. coli DH5α
[4] = in combination with SEQ ID NO: 7, E. coli DH5α
[5] = in combination with SEQ ID NO: 8, E. coli DH5α

5: antimicrobial peptide produced by mutagenesis based on SEQ ID NO: 7 and/or 8 (chain 1 SSRSAAGTIWEFEAF; chain 2 MVKRGLGKNLKRRATKIGNGIKNTLRNFNVVFPIPRPG; Consensus sequence of antimicrobial peptide; Antimicrobial peptide 5) [compound 5]
antimicrobial activity: inhibiting bacterial growth and/or killing bacteria on expression (in words) [1]: having antimicrobial activity

10: antimicrobial peptide produced by mutagenesis based on SEQ ID NO: 7 and/or 8 (MVKRGFGKRLRKRPKKFRNSIKKRLKNFNVVFPVPRPG; antimicrobial peptide A12) [compound 10]
antimicrobial activity: inhibiting bacterial growth and/or killing bacteria on expression (in words) [1]: having antimicrobial activity

13: antimicrobial peptide produced by mutagenesis based on SEQ ID NO: 7 and/or 8 (MVKRGFWKSLKRKLKKFGMILGID; Antimicrobial peptide 13) [compound 13]
antimicrobial activity: inhibiting bacterial growth and/or killing bacteria on expression (in words) [1]: having antimicrobial activity

20: antimicrobial peptide produced by mutagenesis based on SEQ ID NO: 7 and/or 8 (MVKRGFGESLRRRVTKLRDDIKKH; Antimicrobial peptide 20) [compound 20]
antimicrobial activity: inhibiting bacterial growth and/or killing bacteria on expression (in words) [1]: having antimicrobial activity

28: antimicrobial peptide produced by mutagenesis based on SEQ ID NO: 7 and/or 8 (chain 1 MVLGGFSRCRWLEEKLRDFMKNLVVRIAG; chain 2 MVKRGLGEKLRRRPKKFGIVLGIH; Antimicrobial peptide F7; Antimicrobial peptide 28) [compound 28]
antimicrobial activity: inhibiting bacterial growth and/or killing bacteria on expression (in words) [1]: having antimicrobial activity

CC1(C)S[C@@H]2[C@H](NC(=O)[C@H](N)c3ccccc3)C(=O)N2[C@H]1C(=O)O [Ampicillin]
MIC of antibiotic [2, 3]: 2 µg/mL
MIC of antibiotic [2, 4]: 2 µg/mL
MIC of antibiotic [2, 5]: 4 µg/mL

O=C(N[C@H](CO)[C@H](O)c1ccc([N+](=O)[O-])cc1)C(Cl)Cl [Chloramphenicol]
MIC of antibiotic [2, 3]: 4 µg/mL
MIC of antibiotic [2, 4]: 1 µg/mL
MIC of antibiotic [2, 5]: 2 µg/mL

CN(C)[C@@H]1C(O)=C(C(N)=O)C(=O)[C@@]2(O)C(O)=C3C(=O)c4c(O)cccc4[C@@](C)(O)[C@H]3C[C@@H]12 [Tetracycline]
MIC of antibiotic [2, 3]: 2 µg/mL
MIC of antibiotic [2, 4]: 0.25 µg/mL
MIC of antibiotic [2, 5]: 0.5 µg/mL

A4: antimicrobial peptide produced by mutagenesis based on SEQ ID NO: 7 and/or 8 (MVKRGFGKNLRRRPTKFRNSIRNRLKNFNIEFPVPRQG; Antimicrobial peptide A4)
antimicrobial activity: inhibiting bacterial growth and/or killing bacteria on expression (in words) [1]: having antimicrobial activity

A5: antimicrobial peptide produced by mutagenesis based on SEQ ID NO: 7 and/or 8 (MVKRGFWKKLKRKAKKFRNSIRKTLKNFNIIIPVPLPG; Antimicrobial peptide A5)
antimicrobial activity: inhibiting bacterial growth and/or killing bacteria on expression (in words) [1]: having antimicrobial activity

A6: antimicrobial peptide produced by mutagenesis based on SEQ ID NO: 7 and/or 8 (MVKRGLGKKLKKKPKKFRNSIKKRLKNFNIEIPIPRQG; Antimicrobial peptide A6)
antimicrobial activity: inhibiting bacterial growth and/or killing bacteria on expression (in words) [1]: having antimicrobial activity

A10: antimicrobial peptide produced by mutagenesis based on SEQ ID NO: 7 and/or 8 (MVKRGFGKKLKKKAKKFRNSIRKRLKNFNVKIPVPLPG; Antimicrobial peptide A10)
antimicrobial activity: inhibiting bacterial growth and/or killing bacteria on expression (in words) [1]: having antimicrobial activity

A11: antimicrobial peptide produced by mutagenesis based on SEQ ID NO: 7 and/or 8 (MVKRGFGKKLRKRATKFRNSIRKRLKNFNIIFPVPRQG; Antimicrobial peptide A11)
antimicrobial activity: inhibiting bacterial growth and/or killing bacteria on expression (in words) [1]: having antimicrobial activity

A12: antimicrobial peptide produced by mutagenesis based on SEQ ID NO: 7 and/or 8 (MVKRGFGKRLRKRPKKFRNSIKKRLKNFNVVFPVPRPG; antimicrobial peptide A12)
antimicrobial activity: inhibiting bacterial growth and/or killing bacteria on expression (in words) [1]: having antimicrobial activity

B1: peptide by mutagenesis based on a consensus sequence for antimicrobial C-terminal fragments of cathelicidin proteins (MVLGDLLRRVGGKFEEFFGKIRETIRTIRICSHLLLRGSSRSAAGTIWEFEAF; Antimicrobial peptide B1)
antimicrobial activity: inhibiting bacterial growth and/or killing bacteria on expression (in words) [1]: having antimicrobial activity

E3: peptide by mutagenesis based on a consensus sequence for antimicrobial C-terminal fragments of cathelicidin proteins (MVLGGCLRKGGGRLVGMFGRFRATLKNLLDMLGRRIEG; Antimicrobial peptide E3)
antimicrobial activity: inhibiting bacterial growth and/or killing bacteria on expression (in words) [1]: having antimicrobial activity

F4: peptide by mutagenesis based on a consensus sequence for antimicrobial C-terminal fragments of cathelicidin proteins (MVLGGRSGKVRERFRRIFERYEAKIRTFMEILAAPSQD; Antimicrobial peptide F4)
antimicrobial activity: inhibiting bacterial growth and/or killing bacteria on expression (in words) [1]: having antimicrobial activity

F6: peptide by mutagenesis based on a consensus sequence for antimicrobial C-terminal fragments of cathelicidin proteins (MVLRGFLKRFGGKILRNRGRDGATLKDFLKMIATRIPH; Antimicrobial peptide F6)
antimicrobial activity: inhibiting bacterial growth and/or killing bacteria on expression (in words) [1]: having antimicrobial activity

F7: peptide by mutagenesis based on a consensus sequence for antimicrobial C-terminal fragments of cathelicidin proteins (MVLGGFSRCRWLEEKLRDFMKNLVVRIAG; Antimicrobial peptide F7)
antimicrobial activity: inhibiting bacterial growth and/or killing bacteria on expression (in words) [1]: having antimicrobial activity

F12: peptide by mutagenesis based on a consensus sequence for antimicrobial C-terminal fragments of cathelicidin proteins (MVIGDRFKKFRERLVELRGRNGARLRPLMNIMGGRSAG; Antimicrobial peptide F12)
antimicrobial activity: inhibiting bacterial growth and/or killing bacteria on expression (in words) [1]: having antimicrobial activity

G9: peptide by mutagenesis based on a consensus sequence for antimicrobial C-terminal fragments of cathelicidin proteins (MVLGGFLRNVRWEIWKKGLSLFCQISYFVVRSSSRSAAGTIWEFEAF; Antimicrobial peptide G9)
antimicrobial activity: inhibiting bacterial growth and/or killing bacteria on expression (in words) [1]: having antimicrobial activity

G10: peptide by mutagenesis based on a consensus sequence for antimicrobial C-terminal fragments of cathelicidin proteins (MVIRGLLKRGKGRILGLLGRNGKRLRAIMDMFRRRSQQ; Antimicrobial peptide G10)
antimicrobial activity: inhibiting bacterial growth and/or killing bacteria on expression (in words) [1]: having antimicrobial activity

H6: peptide by mutagenesis based on a consensus sequence for antimicrobial C-terminal fragments of cathelicidin proteins (MVIGDCLRRVRGSLENTVRDLNQGLGILRLRW; Antimicrobial peptide H6)
antimicrobial activity: inhibiting bacterial growth and/or killing bacteria on expression (in words) [1]: having antimicrobial activity

B1: B6: peptide by mutagenesis based on a consensus sequence for antimicrobial C-terminal fragments of cathelicidin proteins (peptide)
chain: MVGIVSGEFRGSFEKCVGGIDKSLGILRLSWDLVLRGILRLSWDLVLRGSSRSAAGTIWEFEAF
modifications: Antimicrobial peptide B6
antimicrobial activity: inhibiting bacterial growth and/or killing bacteria on expression (in words) [1]: having antimicrobial activity

B2: 27: antimicrobial peptide produced by mutagenesis based on SEQ ID NO: 7 and/or 8 (peptide)
chain 1: MVLRGFLKRFGGKILRNRGRDGATLKDFLKMIATRIPH
chain 2: MVKRGFGKRLRRKATKLGMILRRH
modifications: Antimicrobial peptide F6; Antimicrobial peptide 27
antimicrobial activity: inhibiting bacterial growth and/or killing bacteria on expression (in words) [1]: having antimicrobial activity
